Data published in patent US10167262B2, “Herbicidal substituted 3-arylpyrazoles” (FMC CORPORATION, priority 2014, dated 2019).
Like-named read-outs stand apart in the source and are kept apart here.

Assays:
Type in all cases: in vivo
[1] = test system: barnyardgrass (Echinochloa crus-galli); test: Test A pre-/postemergence greenhouse herbicide test, visual injury rating 0-100; conditions: 1000 g ai/ha; for pest or weed control at 1000 g/ha: Echinochloa crus-galli, 240 h, read-out: Plant response rating (0 to 100 scale), Barnyardgrass
Summary of the method: (§1)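 Planting in a loam and sand mixture preceded a directed preemergence soil spray; postemergence spray was applied concurrently to one- to two-leaf plants. After roughly 10 days under glass, injury is scored visually against untreated controls, 0–100.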

[2] = test system: corn (Zea mays); test: as above; conditions: 1000 g ai/ha; for plant injury at 1000 g/ha: Zea mays, 240 h, read-out: Plant response rating (0 to 100 scale), Corn
Summary of the method: as §1

[3] = test system: giant foxtail (Setaria faberii); test: as above; conditions: 1000 g ai/ha; for pest or weed control at 1000 g/ha: Setaria faberi, 240 h, read-out: Plant response rating (0 to 100 scale), Foxtail, Giant
Summary of the method: as §1

[4] = test system: large (Lg) crabgrass (Digitaria sanguinalis); test: as above; conditions: 1000 g ai/ha; for pest or weed control at 1000 g/ha: Digitaria sanguinalis, 240 h, read-out: Plant response rating (0 to 100 scale), Crabgrass, Large
Summary of the method: as §1

[5] = test system: morningglory (Ipomoea spp.); test: as above; conditions: 1000 g ai/ha; for pest or weed control at 1000 g/ha: Ipomoea, 240 h, read-out: Plant response rating (0 to 100 scale), Morningglory
Summary of the method: as §1

[6] = test system: pigweed (Amaranthus retroflexus); test: as above; conditions: 1000 g ai/ha; for pest or weed control at 1000 g/ha: Amaranthus retroflexus, 240 h, read-out: Plant response rating (0 to 100 scale), Pigweed
Summary of the method: as §1

[7] = test system: velvetleaf (Abutilon theophrasti); test: as above; conditions: 1000 g ai/ha; for pest or weed control at 1000 g/ha: Abutilon theophrasti, 240 h, read-out: Plant response rating (0 to 100 scale), Velvetleaf
Summary of the method: as §1

[8] = test system: wheat (Triticum aestivum); test: as above; conditions: 1000 g ai/ha; for plant injury at 1000 g/ha: Triticum aestivum, 240 h, read-out: Plant response rating (0 to 100 scale), Wheat
Summary of the method: as §1

[9] = test system: galium (catchweed bedstraw, Galium aparine); test: Test C pre-/postemergence greenhouse test, plant response rating 0-100; conditions: Postemergence
Summary of the method: (§2)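 After treatment, pots stay in the greenhouse 13–15 days before each species is compared with untreated controls and given a 0–100 visual score. Preemergence seeds are in loam blended with sand; postemergence plants, 1–4 leaves, are in peat-based medium.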

[10] = test system: morningglory (Ipomoea coccinea); test: as above; conditions: Postemergence
Summary of the method: as §2

[11] = test system: chickweed (common chickweed, Stellaria media); test: Test C postemergence greenhouse test, plant response rating 0-100
Text: (§3) At the same time, plants selected from these crop and weed species and also winter barley (Hordeum vulgare), bermudagrass (Cynodon dactylon), downy bromegrass (Bromus tectorum), canarygrass (Phalaris minor), cocklebur (common cocklebur, Xanthium strumarium), woolly cupgrass (Eriochloa villosa), deadnettle (henbit deadnettle, Lamium amplexicaule), green foxtail (Setaria viridis), goosegrass (Eleusine indica), surinam grass (Brachiaria decumbens), windgrass (Apera spica-venti), chickweed (common chickweed, Stellaria media), kochia (Kochia scoparia), and wild oat (Avena fatua), were planted in pots containing Redi-Earth® planting medium (Scotts Company, 14111 Scottslawn Road, Marysville, Ohio 43041) comprising spaghnum peat moss, vermiculite, wetting agent and starter nutrients and treated with postemergence applications of test chemicals formulated in the same manner. Plants ranged in height from 2 to 18 cm (1- to 4-leaf stage) for postemergence treatments. Treated plants and controls were maintained in a greenhouse for 13 to 15 days, after which time all species were compared to controls and visually evaluated. Plant response ratings, summarized in Table C, are based on a scale of 0 to 100 where 0 is no effect and 100 is complete control. A dash (-) response means no test result.

[12] = test system: kochia (Kochia scoparia); test: as above
Text: as §3

[13] = test system: wild oat (Avena fatua); test: as above
Text: as §3

Cn1cc(C(=NN2CCCC2)c2ccccc2)c(-c2cc(Cl)c(Cl)c(Cl)c2)n1 [Compound 25]
Plant response rating (0 to 100 scale), Barnyardgrass ([1]; Postemergence): 0
Plant response rating (0 to 100 scale), Barnyardgrass ([1]; Preemergence): 0
Plant response rating (0 to 100 scale), Corn ([2]; Postemergence): 0
Plant response rating (0 to 100 scale), Corn ([2]; Preemergence): 0
Plant response rating (0 to 100 scale), Foxtail, Giant ([3]; Postemergence): 0
Plant response rating (0 to 100 scale), Foxtail, Giant ([3]; Preemergence): 0
Plant response rating (0 to 100 scale), Crabgrass, Large ([4]; Postemergence): 0
Plant response rating (0 to 100 scale), Crabgrass, Large ([4]; Preemergence): 0
Plant response rating (0 to 100 scale), Morningglory ([5]; Postemergence): 0
Plant response rating (0 to 100 scale), Morningglory ([5]; Preemergence): 0
Plant response rating (0 to 100 scale), Pigweed ([6]; Postemergence): 90
Plant response rating (0 to 100 scale), Pigweed ([6]; Preemergence): 90
Plant response rating (0 to 100 scale), Velvetleaf ([7]; Postemergence): 80
Plant response rating (0 to 100 scale), Velvetleaf ([7]; Preemergence): 20
Plant response rating (0 to 100 scale), Wheat ([8]; Postemergence): 0
Plant response rating (0 to 100 scale), Wheat ([8]; Preemergence): 0
Plant response rating (0 to 100), Galium ([9]; 31 g ai/ha): 0
Plant response rating (0 to 100), Galium ([9]; 62 g ai/ha): 0
Plant response rating (0 to 100), Galium ([9]; 125 g ai/ha): 0
Plant response rating, Galium ([9]; 250 g ai/ha, scale 0 to 100): 0
Plant response rating (0 to 100), Morningglory ([10]; 62 g ai/ha): 0
Plant response rating (0 to 100), Morningglory ([10]; 125 g ai/ha): 0
Plant response rating, Morningglory ([10]; 250 g ai/ha, scale 0 to 100): 0
Plant response rating (0 to 100), Chickweed ([11]; 31 g ai/ha): 10
Plant response rating (0 to 100), Chickweed ([11]; 62 g ai/ha): 75
Plant response rating (0 to 100), Chickweed ([11]; 125 g ai/ha): 75
Plant response rating, Chickweed ([11]; 250 g ai/ha, scale 0 to 100): 75
Plant response rating (0 to 100), Kochia ([12]; 62 g ai/ha): 0
Plant response rating (0 to 100), Kochia ([12]; 125 g ai/ha): 15
Plant response rating, Kochia ([12]; 250 g ai/ha, scale 0 to 100): 15
Plant response rating (0 to 100), Oat, Wild ([13]; 62 g ai/ha): 0
Plant response rating (0 to 100), Oat, Wild ([13]; 125 g ai/ha): 0
Plant response rating, Oat, Wild ([13]; 250 g ai/ha, scale 0 to 100): 10

CCn1cc(C(=O)c2ccccc2)c(-c2cc(Cl)cc(Cl)c2)n1 [Compound 31, [3-(3,5-dichlorophenyl)-1-ethyl-1H-pyrazol-4-yl]phenylmethanone]
pest or weed control at 1000 g/ha ([1]; post-emergence, Postemergence): 20%
pest or weed control at 1000 g/ha ([1]; pre-emergence, Preemergence): 0%
plant injury at 1000 g/ha ([2]; post-emergence, Postemergence): 10%
plant injury at 1000 g/ha ([2]; pre-emergence, Preemergence): 0%
pest or weed control at 1000 g/ha ([3]; post-emergence, Postemergence): 0%
pest or weed control at 1000 g/ha ([3]; pre-emergence, Preemergence): 0%
pest or weed control at 1000 g/ha ([4]; post-emergence, Postemergence): 0%
pest or weed control at 1000 g/ha ([4]; pre-emergence, Preemergence): 0%
pest or weed control at 1000 g/ha ([5]; post-emergence, Postemergence): 0%
pest or weed control at 1000 g/ha ([5]; pre-emergence, Preemergence): 0%
pest or weed control at 1000 g/ha ([6]; post-emergence, Postemergence): 100%
pest or weed control at 1000 g/ha ([6]; pre-emergence, Preemergence): 100%
pest or weed control at 1000 g/ha ([7]; post-emergence, Postemergence): 90%
pest or weed control at 1000 g/ha ([7]; pre-emergence, Preemergence): 70%
plant injury at 1000 g/ha ([8]; post-emergence, Postemergence): 0%
plant injury at 1000 g/ha ([8]; pre-emergence, Preemergence): 0%
pest or weed control at 16 g/ha ([9]; Galium, post-emergence, 16 g ai/ha): 0%
pest or weed control at 31 g/ha ([9]; Galium, post-emergence, 31 g ai/ha, read-out: Plant response rating (0 to 100), Galium): 0%
pest or weed control at 62 g/ha ([9]; Galium, post-emergence, 62 g ai/ha, read-out: Plant response rating (0 to 100), Galium): 0%
pest or weed control at 125 g/ha ([9]; Galium, post-emergence, 125 g ai/ha, read-out: Plant response rating (0 to 100), Galium): 5%
pest or weed control at 16 g/ha ([10]; Ipomoea, post-emergence, 16 g ai/ha): 0%
pest or weed control at 62 g/ha ([10]; Ipomoea, post-emergence, 62 g ai/ha, read-out: Plant response rating (0 to 100), Morningglory): 5%
pest or weed control at 125 g/ha ([10]; Ipomoea, post-emergence, 125 g ai/ha, read-out: Plant response rating (0 to 100), Morningglory): 5%
pest or weed control at 16 g/ha ([11]; Stellaria media, post-emergence, 16 g ai/ha): 10%
pest or weed control at 31 g/ha ([11]; Stellaria media, post-emergence, 31 g ai/ha): 70%
pest or weed control at 62 g/ha ([11]; Stellaria media, post-emergence, 62 g ai/ha): 75%
pest or weed control at 125 g/ha ([11]; Stellaria media, post-emergence, 125 g ai/ha): 80%
pest or weed control at 16 g/ha ([12]; Bassia scoparia, post-emergence, 16 g ai/ha): 5%
pest or weed control at 62 g/ha ([12]; Bassia scoparia, post-emergence, 62 g ai/ha): 40%
pest or weed control at 125 g/ha ([12]; Bassia scoparia, post-emergence, 125 g ai/ha): 40%
pest or weed control at 16 g/ha ([13]; Avena fatua, post-emergence, 16 g ai/ha): 0%
pest or weed control at 62 g/ha ([13]; Avena fatua, post-emergence, 62 g ai/ha): 0%
pest or weed control at 125 g/ha ([13]; Avena fatua, post-emergence, 125 g ai/ha): 0%
